Test results taken from patent US8518460B2, “Use of total coumarins of cnidium fruit in preparing medicaments for treating psoriasis” (priority 2002, dated 2013).

System: swelling of rat toes induced by egg-white
Experiment: Swelling of rat toes induced by egg-white injection
Type: in vivo, rats
Conditions: 0.3 g ointment per toe, repeated after 0.5 hour
Procedure: 50 SD rats, 150 g±10 g, were divided randomly into five groups. The volume of the toes at the same side of rats among the 5 groups was measured. 10% of egg white was injected into the toes, 0.2 ml each toe. After that, rats of two groups were anointed respectively with 0.15 g and 0.3 g of an ointment of total coumarins (containing 10% total coumarins) at each toe. Rats of other two groups were respectively anointed with 0.3 g of a blank ointment and 0.3 g of an ointment of anthralin at each toe. The rest one group was treated nothing as a control. 0.5 hour later, the above treatment was repeated. At 1st, 2nd, 4th, and 6th hour the volume of the toes were measured. The difference of the volume was regarded as the degree of the swelling of the toes.

O=C1c2c(O)cccc2Cc2cccc(O)c21 [Anthralin, anthralin]
Degree of toe swelling (volume increase) (1 h): 0.408 ± 0.201 mL
Degree of toe swelling (volume increase) (2 h): 0.391 ± 0.209 mL
Degree of toe swelling (volume increase) (4 h): 0.375 ± 0.189 mL
Degree of toe swelling (volume increase) (6 h): 0.351 ± 0.165 mL
